Measured values taken from the supplement of paper PMC10307832.

Experiments:
Experiment in all cases: relative viability (nuclei count vs DMSO), 5 days (fraction); higher = more cells survive
Decitabine + Pictilisib = compound: Nc1ncn([C@H]2C[C@H](O)[C@@H](CO)O2)c(=O)n1 [Decitabine] + CS(=O)(=O)N1CCN(Cc2cc3nc(-c4cccc5[nH]ncc45)nc(N4CCOCC4)c3s2)CC1 [Pictilisib] (partner 1 µM)
Outline: (§1)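 Lung cancer cell lines in 1536-well plates got either a single drug or a fixed anchor-drug dose together with five library-drug doses (not always all listed) in √10 steps, by pin tool, on the day after seeding. Nuclei were counted after 5 days, and relative viability is the treated-to-vehicle ratio of nuclei counts. Values are medians of duplicate plates.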

Cediranib + Trametinib = compound: COc1cc2c(Oc3ccc4[nH]c(C)cc4c3F)ncnc2cc1OCCCN1CCCC1 [Cediranib] + CC(=O)Nc1cccc(-n2c(=O)n(C3CC3)c(=O)c3c(Nc4ccc(I)cc4F)n(C)c(=O)c(C)c32)c1 [Trametinib] (partner 0.02 µM)
Outline: as §1

Cediranib + Bortezomib = compound: COc1cc2c(Oc3ccc4[nH]c(C)cc4c3F)ncnc2cc1OCCCN1CCCC1 [Cediranib] + CC(C)C[C@H](NC(=O)[C@H](Cc1ccccc1)NC(=O)c1cnccn1)B(O)O [Bortezomib] (partner 0.002 µM)
Outline: as §1

Cediranib + Crizotinib = compound: COc1cc2c(Oc3ccc4[nH]c(C)cc4c3F)ncnc2cc1OCCCN1CCCC1 [Cediranib] + C[C@@H](Oc1cc(-c2cnn(C3CCNCC3)c2)cnc1N)c1c(Cl)ccc(F)c1Cl [Crizotinib] (partner 1 µM)
Outline: as §1

Cell Line: NCI-H23
- relative viability (Decitabine + Pictilisib; first compound 0.04 µM): 0.528
- relative viability (Decitabine + Pictilisib; first compound 0.1265 µM): 0.59
- relative viability (Decitabine + Pictilisib; first compound 0.4 µM): 0.281
- relative viability (Decitabine + Pictilisib; first compound 1.265 µM): 0.266
- relative viability (Decitabine + Pictilisib; first compound 4 µM): 0.196
- relative viability (Cediranib + Trametinib; first compound 0.04 µM): 0.483
- relative viability (Cediranib + Trametinib; first compound 0.1265 µM): 0.426
- relative viability (Cediranib + Trametinib; first compound 0.4 µM): 0.419
- relative viability (Cediranib + Trametinib; first compound 1.265 µM): 0.325
- relative viability (Cediranib + Trametinib; first compound 4 µM): 0.424
- relative viability (Cediranib + Bortezomib; first compound 0.04 µM): 1.07
- relative viability (Cediranib + Bortezomib; first compound 0.4 µM): 0.938
- relative viability (Cediranib + Bortezomib; first compound 1.265 µM): 0.907
- relative viability (Cediranib + Bortezomib; first compound 4 µM): 1.32
- relative viability (Cediranib + Crizotinib; first compound 0.04 µM): 0.472
- relative viability (Cediranib + Crizotinib; first compound 0.4 µM): 0.557
- relative viability (Cediranib + Crizotinib; first compound 1.265 µM): 0.518
- relative viability (Cediranib + Crizotinib; first compound 4 µM): 0.597

Cell Line: NCI-H647
- relative viability (Decitabine + Pictilisib; first compound 0.04 µM): 0.504
- relative viability (Decitabine + Pictilisib; first compound 0.1265 µM): 0.566
- relative viability (Decitabine + Pictilisib; first compound 0.4 µM): 0.42
- relative viability (Decitabine + Pictilisib; first compound 1.265 µM): 0.191
- relative viability (Decitabine + Pictilisib; first compound 4 µM): 0.214
- relative viability (Cediranib + Trametinib; first compound 0.04 µM): 0.48
- relative viability (Cediranib + Trametinib; first compound 0.1265 µM): 0.428
- relative viability (Cediranib + Trametinib; first compound 0.4 µM): 0.441
- relative viability (Cediranib + Trametinib; first compound 1.265 µM): 0.515
- relative viability (Cediranib + Trametinib; first compound 4 µM): 0.491
- relative viability (Cediranib + Bortezomib; first compound 0.04 µM): 1.1
- relative viability (Cediranib + Bortezomib; first compound 0.1265 µM): 1.02
- relative viability (Cediranib + Bortezomib; first compound 0.4 µM): 0.845
- relative viability (Cediranib + Bortezomib; first compound 1.265 µM): 0.728
- relative viability (Cediranib + Bortezomib; first compound 4 µM): 1.16
- relative viability (Cediranib + Crizotinib; first compound 0.04 µM): 1.24
- relative viability (Cediranib + Crizotinib; first compound 0.1265 µM): 1.03
- relative viability (Cediranib + Crizotinib; first compound 0.4 µM): 0.86
- relative viability (Cediranib + Crizotinib; first compound 1.265 µM): 1.1
- relative viability (Cediranib + Crizotinib; first compound 4 µM): 1.18

Cell Line: 201T
- relative viability (Decitabine + Pictilisib; first compound 0.04 µM): 0.655
- relative viability (Decitabine + Pictilisib; first compound 0.1265 µM): 0.817
- relative viability (Decitabine + Pictilisib; first compound 0.4 µM): 0.93
- relative viability (Decitabine + Pictilisib; first compound 1.265 µM): 0.695
- relative viability (Decitabine + Pictilisib; first compound 4 µM): 0.531
- relative viability (Cediranib + Trametinib; first compound 0.04 µM): 0.705
- relative viability (Cediranib + Trametinib; first compound 0.1265 µM): 0.792
- relative viability (Cediranib + Trametinib; first compound 0.4 µM): 0.707
- relative viability (Cediranib + Trametinib; first compound 1.265 µM): 0.719
- relative viability (Cediranib + Trametinib; first compound 4 µM): 0.724
- relative viability (Cediranib + Bortezomib; first compound 0.04 µM): 1.16
- relative viability (Cediranib + Bortezomib; first compound 0.1265 µM): 1.19
- relative viability (Cediranib + Bortezomib; first compound 0.4 µM): 1.09
- relative viability (Cediranib + Bortezomib; first compound 1.265 µM): 1.05
- relative viability (Cediranib + Bortezomib; first compound 4 µM): 1.09
- relative viability (Cediranib + Crizotinib; first compound 0.04 µM): 1.05
- relative viability (Cediranib + Crizotinib; first compound 0.1265 µM): 1.18
- relative viability (Cediranib + Crizotinib; first compound 0.4 µM): 0.989
- relative viability (Cediranib + Crizotinib; first compound 1.265 µM): 1.01
- relative viability (Cediranib + Crizotinib; first compound 4 µM): 1.01

Cell Line: NCI-H1734
- relative viability (Decitabine + Pictilisib; first compound 0.04 µM): 0.442
- relative viability (Decitabine + Pictilisib; first compound 0.1265 µM): 0.453
- relative viability (Decitabine + Pictilisib; first compound 0.4 µM): 0.443
- relative viability (Decitabine + Pictilisib; first compound 1.265 µM): 0.342
- relative viability (Decitabine + Pictilisib; first compound 4 µM): 0.312
- relative viability (Cediranib + Trametinib; first compound 0.04 µM): 0.658
- relative viability (Cediranib + Trametinib; first compound 0.1265 µM): 0.663
- relative viability (Cediranib + Trametinib; first compound 0.4 µM): 0.71
- relative viability (Cediranib + Trametinib; first compound 1.265 µM): 0.633
- relative viability (Cediranib + Trametinib; first compound 4 µM): 0.683
- relative viability (Cediranib + Bortezomib; first compound 0.04 µM): 0.831
- relative viability (Cediranib + Bortezomib; first compound 0.1265 µM): 0.814
- relative viability (Cediranib + Bortezomib; first compound 0.4 µM): 0.806
- relative viability (Cediranib + Bortezomib; first compound 1.265 µM): 0.837
- relative viability (Cediranib + Bortezomib; first compound 4 µM): 1.24
- relative viability (Cediranib + Crizotinib; first compound 0.04 µM): 0.604
- relative viability (Cediranib + Crizotinib; first compound 0.1265 µM): 0.612
- relative viability (Cediranib + Crizotinib; first compound 0.4 µM): 0.551
- relative viability (Cediranib + Crizotinib; first compound 1.265 µM): 0.691
- relative viability (Cediranib + Crizotinib; first compound 4 µM): 0.695

Cell Line: NCI-H596
- relative viability (Decitabine + Pictilisib; first compound 0.04 µM): 0.38
- relative viability (Decitabine + Pictilisib; first compound 0.1265 µM): 0.416
- relative viability (Decitabine + Pictilisib; first compound 0.4 µM): 0.304
- relative viability (Decitabine + Pictilisib; first compound 1.265 µM): 0.358
- relative viability (Decitabine + Pictilisib; first compound 4 µM): 0.633
- relative viability (Cediranib + Trametinib; first compound 0.04 µM): 0.767
- relative viability (Cediranib + Trametinib; first compound 0.1265 µM): 0.778
- relative viability (Cediranib + Trametinib; first compound 0.4 µM): 0.73
- relative viability (Cediranib + Trametinib; first compound 1.265 µM): 0.771
- relative viability (Cediranib + Trametinib; first compound 4 µM): 0.918
- relative viability (Cediranib + Bortezomib; first compound 0.04 µM): 1.05
- relative viability (Cediranib + Bortezomib; first compound 0.1265 µM): 1.01
- relative viability (Cediranib + Bortezomib; first compound 0.4 µM): 0.831
- relative viability (Cediranib + Bortezomib; first compound 1.265 µM): 1
- relative viability (Cediranib + Bortezomib; first compound 4 µM): 1.09
- relative viability (Cediranib + Crizotinib; first compound 0.04 µM): 0.934
- relative viability (Cediranib + Crizotinib; first compound 0.1265 µM): 1.09
- relative viability (Cediranib + Crizotinib; first compound 0.4 µM): 0.988
- relative viability (Cediranib + Crizotinib; first compound 1.265 µM): 0.954
- relative viability (Cediranib + Crizotinib; first compound 4 µM): 1.09
